The source of these data is publication PMC6099940, “Design, Synthesis and Biological Evaluation of Novel Phenylsulfonylurea Derivatives as PI3K/mTOR Dual Inhibitors” (Molecules : A Journal of Synthetic Chemistry and Natural …, 2018).

Some results are limits rather than exact numbers.

The subject of one series is MCF-7. As to the kind of experiment: In vitro cytotoxicity, MTT assay, MCF-7. Format: cell-based. Conditions: Homo sapiens, MCF7; MCF-7 cells, MTT, 72 h; average of two separate determinations; read-out: IC50 (µM) MCF-7.
The test system of a further series is A549. As to the kind of experiment: In vitro cytotoxicity, MTT assay, A549. Format: cell-based. As to conditions: Homo sapiens, A549 cells, 72 h, average of two separate determinations. A general note: Formazan colour is commonly taken as a measure of viable cells.
Another series concerns PC-3. In words: In vitro cytotoxicity, MTT assay, PC-3. Conditions: Homo sapiens, PC-3 cells, 72 h, average of two separate determinations. Format: cell-based.
A further series relates to HepG-2. In words: In vitro cytotoxicity, MTT assay, HepG-2. In kind it is cell-based. Conditions: Homo sapiens, HepG2, HepG-2 cells, 72 h, average of two separate determinations.
Another series addresses PI3Kα (Homo sapiens, UniProt P42336). In words: PI3Kα kinase assay (Kinase-Glo Luminescent Kinase Assay). In kind it is biochemical. Conditions: 1 µM ATP, 60 min, average of two determinations. For orientation: Kinase-Glo measures the ATP left after a reaction by luminescence.
For the next series, the target named is mTOR (Homo sapiens, UniProt P42345). In words: mTOR kinase assay (Kinase-Glo Luminescent Kinase Assay). In kind it is biochemical. As to conditions: 10 µM ATP, 60 min, average of two determinations.

Chain of PI3Kα (P42336 whole entry): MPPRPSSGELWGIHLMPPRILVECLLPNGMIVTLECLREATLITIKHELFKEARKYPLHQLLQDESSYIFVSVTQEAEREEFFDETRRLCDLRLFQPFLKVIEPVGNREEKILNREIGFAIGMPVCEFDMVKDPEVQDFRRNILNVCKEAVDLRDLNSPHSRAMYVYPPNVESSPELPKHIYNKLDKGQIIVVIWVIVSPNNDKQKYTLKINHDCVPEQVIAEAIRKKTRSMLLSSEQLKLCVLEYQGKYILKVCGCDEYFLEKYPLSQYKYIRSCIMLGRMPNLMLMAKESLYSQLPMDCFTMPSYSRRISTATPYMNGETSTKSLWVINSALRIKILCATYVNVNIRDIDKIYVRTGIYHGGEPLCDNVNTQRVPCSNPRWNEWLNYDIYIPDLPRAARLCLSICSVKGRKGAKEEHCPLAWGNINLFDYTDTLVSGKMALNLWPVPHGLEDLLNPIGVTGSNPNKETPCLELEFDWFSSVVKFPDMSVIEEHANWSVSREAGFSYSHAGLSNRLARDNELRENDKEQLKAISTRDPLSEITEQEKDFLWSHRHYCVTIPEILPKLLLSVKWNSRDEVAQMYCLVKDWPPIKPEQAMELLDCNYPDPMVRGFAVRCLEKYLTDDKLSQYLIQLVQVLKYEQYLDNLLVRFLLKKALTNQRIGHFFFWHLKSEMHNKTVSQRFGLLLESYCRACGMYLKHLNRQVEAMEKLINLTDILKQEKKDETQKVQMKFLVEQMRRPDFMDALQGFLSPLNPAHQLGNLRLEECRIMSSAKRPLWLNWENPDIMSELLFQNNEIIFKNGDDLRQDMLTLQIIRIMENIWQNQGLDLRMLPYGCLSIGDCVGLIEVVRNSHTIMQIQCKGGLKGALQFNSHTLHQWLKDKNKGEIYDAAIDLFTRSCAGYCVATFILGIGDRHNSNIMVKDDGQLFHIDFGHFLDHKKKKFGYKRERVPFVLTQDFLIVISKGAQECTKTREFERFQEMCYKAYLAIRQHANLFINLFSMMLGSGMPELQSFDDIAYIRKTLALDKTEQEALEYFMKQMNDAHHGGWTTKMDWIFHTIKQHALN
Chain of PI3Kα (P27986 whole entry partner): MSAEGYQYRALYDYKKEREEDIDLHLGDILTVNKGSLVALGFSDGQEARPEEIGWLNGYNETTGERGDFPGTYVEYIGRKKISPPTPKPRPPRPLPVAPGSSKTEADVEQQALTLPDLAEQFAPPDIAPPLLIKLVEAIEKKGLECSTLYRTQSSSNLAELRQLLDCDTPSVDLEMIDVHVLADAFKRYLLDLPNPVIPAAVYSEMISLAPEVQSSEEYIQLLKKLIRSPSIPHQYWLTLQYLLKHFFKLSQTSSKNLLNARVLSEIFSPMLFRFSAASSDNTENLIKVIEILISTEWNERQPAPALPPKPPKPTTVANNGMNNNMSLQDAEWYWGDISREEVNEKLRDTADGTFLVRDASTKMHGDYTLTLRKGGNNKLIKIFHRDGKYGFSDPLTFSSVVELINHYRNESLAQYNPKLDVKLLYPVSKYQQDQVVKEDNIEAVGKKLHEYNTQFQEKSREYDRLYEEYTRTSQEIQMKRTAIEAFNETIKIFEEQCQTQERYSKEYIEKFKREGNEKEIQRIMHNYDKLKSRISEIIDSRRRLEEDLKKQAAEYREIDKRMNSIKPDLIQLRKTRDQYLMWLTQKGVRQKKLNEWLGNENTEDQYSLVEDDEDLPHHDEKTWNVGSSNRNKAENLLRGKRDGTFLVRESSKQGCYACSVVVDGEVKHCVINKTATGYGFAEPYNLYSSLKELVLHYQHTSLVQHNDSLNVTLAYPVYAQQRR

The term melting point denotes the temperature of the solid-liquid transition. By IC50 is commonly meant the concentration that gives 50% inhibition. `COc1ccc(Nc2c(NC(=O)NS(=O)(=O)c3ccc(C(C)(C)C)cc3)c(C)nc3ccc(OC)cc23)cc1` [23b, 4-(tert-Butyl)-N-((6-methoxy-4-((4-methoxyphenyl)amino)-2-methylquinolin-3-yl)carbamoyl)benzenesulfonamide] gave a melting point of 291.2 to 292.7 °C. In addition, in the series with MCF-7, the IC50 was found to be 6.55 ± 0.81 µM. In the series with A549, 7.47 ± 0.87 µM corresponded to half-maximal inhibition (IC50). In addition, the half-inhibitory concentration (IC50) with PC-3 was more than 100 µM. Besides, the IC50 with HepG-2 was determined as 2.71 ± 0.43 µM. Besides, the IC50 at PI3Kα was more than 10 µM. This compound also displayed an IC50 against mTOR of more than 10 µM.
